{"source": "patent US20050112742A1", "about": "“High temperature and alkaline stable catalase” (priority 2003, published 2005)", "key": {"[1]": {"target": "T1, Thermus brockianus catalase (SEQ ID NO:2, SEQ ID NO:5) (Thermus brockianus, UniProt A0ABM7XHT8)", "T1 construct": "in solution and immobilized on Eupergit C", "T1 sequence (A0ABM7XHT8 6-291)": "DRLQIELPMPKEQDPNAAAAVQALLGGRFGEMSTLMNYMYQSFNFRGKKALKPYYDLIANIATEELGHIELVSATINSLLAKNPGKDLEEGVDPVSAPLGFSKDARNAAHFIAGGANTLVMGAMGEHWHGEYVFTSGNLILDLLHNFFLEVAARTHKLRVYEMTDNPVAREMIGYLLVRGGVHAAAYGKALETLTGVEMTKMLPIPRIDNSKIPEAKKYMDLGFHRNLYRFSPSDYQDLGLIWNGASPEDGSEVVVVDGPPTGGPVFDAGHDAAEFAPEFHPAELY", "test": "Peroxidase activity with peroxidase substrates", "assay_type": "biochemical", "conditions": "hydrogen peroxide 1 mM, 20 mM Tris pH 8.0, 70° C.", "protocol": "The reactions were monitored spectrophotometrically at 460 and 420 nm, respectively. The substrates were dissolved in 20 mM Tris buffer, pH 8.0, and the assays were conducted at 70° C."}, "T. brockianus catalase": {"test_system": "T. brockianus catalase", "assay_type": "biochemical, Thermus brockianus"}, "[2]": {"test_system": "Archaeoglobus fulgidus recombinant catalase-peroxidase (putative perA gene)", "conditions": "in words; cited from earlier work"}, "[3]": {"test_system": "M. tuberculosis catalase or catalase-peroxidase", "conditions": "cited from earlier work"}, "Beef liver catalase": {"target": "Beef liver catalase (Bos taurus, UniProt P00432)", "sequence (P00432 whole entry)": "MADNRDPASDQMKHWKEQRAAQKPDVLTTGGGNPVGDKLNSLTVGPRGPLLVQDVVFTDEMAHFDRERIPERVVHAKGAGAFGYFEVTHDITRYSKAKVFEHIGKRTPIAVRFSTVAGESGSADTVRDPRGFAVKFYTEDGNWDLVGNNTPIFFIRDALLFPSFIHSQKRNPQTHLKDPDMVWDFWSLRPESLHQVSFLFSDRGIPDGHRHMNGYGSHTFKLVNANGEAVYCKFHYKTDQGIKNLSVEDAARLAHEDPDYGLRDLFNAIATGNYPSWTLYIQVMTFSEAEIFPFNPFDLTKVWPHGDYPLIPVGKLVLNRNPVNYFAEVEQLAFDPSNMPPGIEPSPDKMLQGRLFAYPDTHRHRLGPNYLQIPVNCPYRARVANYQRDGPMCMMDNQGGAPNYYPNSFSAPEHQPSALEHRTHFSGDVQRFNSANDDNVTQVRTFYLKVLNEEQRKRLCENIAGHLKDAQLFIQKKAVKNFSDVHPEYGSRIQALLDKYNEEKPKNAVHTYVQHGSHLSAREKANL", "conditions": "Non-Immobilized Enzyme; inhibition observed at substrate concentrations above"}, "[4]": {"test_system": "Vitreoscilla sp. catalase or catalase-peroxidase", "conditions": "Table 3; cited from earlier work"}, "[5]": {"test_system": "A. nidulans catalase or catalase-peroxidase", "conditions": "cited from earlier work"}, "[6]": {"test_system": "N. crassa catalase or catalase-peroxidase", "conditions": "cited from earlier work"}, "[7]": {"test_system": "Bacillus sp. catalase or catalase-peroxidase", "conditions": "cited from earlier work"}, "[8]": {"test_system": "R. capsulatus catalase or catalase-peroxidase", "conditions": "Table 3; cited from earlier work"}, "[9]": {"test_system": "E. coli catalase or catalase-peroxidase", "conditions": "Table 3; cited from earlier work"}, "[10]": {"target": "T1, Thermus brockianus catalase (SEQ ID NO:2, SEQ ID NO:5)", "test": "Michaelis-Menten kinetics of hydrogen peroxide decomposition (240 nm)", "assay_type": "biochemical", "conditions": "for Vmax: 20 mM Tris pH 8, 70° C.", "protocol": "The buffer pH was adjusted to 8 at 70° C.\nThe constants were calculated by fitting the Michaelis-Menten equation to a plot of reaction velocity versus substrate concentration using nonlinear analysis (using GraFit Version 4, Erithacus Software Limited, Horley Surrey, U.K.). […] The enzyme was assayed as in Example I, except that it was preincubated with the inhibitor for 5 min prior to assay.\nThe turnover number was calculated assuming four active centers per catalase molecule."}, "[11]": {"test_system": "Thermoleophilum album catalase", "conditions": "cited from earlier work"}, "[12]": {"test_system": "Thermoascus aurantiacus catalase", "conditions": "cited from earlier work"}, "[13]": {"test": "Stability of immobilized catalase", "assay_type": "physicochemical", "conditions": "70° C.", "protocol": "For beef liver catalase, the stability at 70° C. and pH 10 increased from no stability to being stable for 5 minutes. The A. niger catalase was stable for at least 6 hours under these conditions. The stability of immobilized T. brockianus catalase is assayed as done with immobilized beef liver catalase."}, "[14]": {"substrate": "OO", "test": "purified protein, by the assay type"}, "[15]": {"conditions": "H2O2 concentration showing substrate inhibition"}}, "note": "“Also recorded” adds a separate entry of the source.", "data": [{"molecule": "CCn1c(=NN=c2sc3cc(S(=O)(=O)O)ccc3n2CC)sc2cc(S(=O)(=O)O)ccc21", "note": "[2,2′-azino-bis(3-ethylbenzothiazoline-6-sulfonic acid)]", "values": [{"measurement": "peroxidase activity", "setting": "[1]; substrate 10 mM, 420 nm", "value": "absence of peroxidase activity"}]}, {"molecule": "Nc1nc[nH]n1", "note": "[3-amino-1,2,4-triazole]", "values": [{"measurement": "inhibition of T. brockianus catalase", "setting": "T. brockianus catalase", "value": "completely inhibited"}, {"measurement": "inhibition of T. brockianus catalase (in words, no concentration given)", "setting": "T. brockianus catalase", "value": "inhibition"}, {"measurement": "inhibition by 3-amino-1,2,4-triazole", "setting": "[2]", "value": "inhibited"}]}, {"molecule": "OO", "note": "[hydrogen peroxide]", "values": [{"measurement": "Km", "setting": "[3]; Table 3", "value": 5.2, "unit": "mM"}, {"measurement": "Kcat", "setting": "[3]", "value": 10100, "unit": "s⁻¹"}, {"measurement": "substrate inhibition concentration (footnote b)", "setting": "Beef liver catalase", "value": "^bApproximated value - inhibition observed at substrate concentrations above 100 mM."}, {"measurement": "Kcat", "setting": "[4]", "value": 26700, "unit": "s⁻¹"}, {"measurement": "Km", "setting": "[4]", "value": 16, "unit": "mM"}, {"measurement": "H2O2 Inhibition", "setting": "[5]; [15]", "value": 10, "unit": "mM"}, {"measurement": "Kcat", "setting": "[5]; Table 3", "value": 7170, "unit": "s⁻¹"}, {"measurement": "Km", "setting": "[5]; Table 3", "value": 4.3, "unit": "mM"}, {"measurement": "Km", "setting": "[6]; Table 3", "value": 25, "unit": "mM"}, {"measurement": "H2O2 Inhibition", "setting": "[6]; no inhibition observed for H2O2 concentrations up to 200 mM", "value": "None^b"}, {"measurement": "H2O2 Inhibition", "setting": "[7]; [15]", "value": 30, "unit": "mM"}, {"measurement": "Km", "setting": "[7]; Table 3", "value": 6.8, "unit": "mM"}, {"measurement": "Km", "setting": "[8]", "value": 4.2, "unit": "mM"}, {"measurement": "Kcat", "setting": "[9]", "value": 16300, "unit": "s⁻¹"}, {"measurement": "Km", "setting": "[9]", "value": 3.9, "unit": "mM"}, {"measurement": "Vmax", "setting": "[10]; hydrogen peroxide 3 to 450 mM", "value": 20.3, "unit": "mM/min·mg protein"}, {"measurement": "Vmax", "setting": "[10]; Table 3", "value": 20.3, "unit": "mM/min/mg"}, {"measurement": "turnover number (kcat)", "setting": "[10]; calculated assuming four active centers per catalase molecule, pH 8, 70° C.", "value": 6000, "unit": "s⁻¹"}, {"measurement": "H2O2 Inhibition", "setting": "[10]; no inhibition observed for H2O2 concentrations up to 450 mM, pH 8, 70° C.", "value": "no apparent substrate inhibition/inactivation; also recorded: not inhibited; also recorded: None^c"}, {"measurement": "H2O2 Inhibition", "setting": "[11]; [15]", "value": 20, "unit": "mM"}, {"measurement": "Km", "setting": "[11]; Table 3", "value": 15, "unit": "mM"}, {"measurement": "Vmax", "setting": "[11]; Table 3", "value": 2.3, "unit": "mM/min/mg"}, {"measurement": "H2O2 Inhibition", "setting": "[12]; [15]", "value": 60, "unit": "mM"}, {"measurement": "Kcat", "setting": "[12]; Table 3", "value": 107000, "unit": "s⁻¹"}, {"measurement": "Km", "setting": "[12]; Table 3", "value": 48, "unit": "mM"}]}, {"molecule": "COc1cc(-c2ccc(N)c(OC)c2)ccc1N", "note": "[o-dianisidine]", "values": [{"measurement": "peroxidase activity", "setting": "[1]; substrate 0.5 mM, 460 nm", "value": "absence of peroxidase activity"}]}, {"molecule": "Beef Liver: beef liver catalase, commercial comparison enzyme (protein, UniProt P00432 2-527, looked up) Catalase: ADNRDPASDQMKHWKEQRAAQKPDVLTTGGGNPVGDKLNSLTVGPRGPLLVQDVVFTDEMAHFDRERIPERVVHAKGAGAFGYFEVTHDITRYSKAKVFEHIGKRTPIAVRFSTVAGESGSADTVRDPRGFAVKFYTEDGNWDLVGNNTPIFFIRDALLFPSFIHSQKRNPQTHLKDPDMVWDFWSLRPESLHQVSFLFSDRGIPDGHRHMNGYGSHTFKLVNANGEAVYCKFHYKTDQGIKNLSVEDAARLAHEDPDYGLRDLFNAIATGNYPSWTLYIQVMTFSEAEIFPFNPFDLTKVWPHGDYPLIPVGKLVLNRNPVNYFAEVEQLAFDPSNMPPGIEPSPDKMLQGRLFAYPDTHRHRLGPNYLQIPVNCPYRARVANYQRDGPMCMMDNQGGAPNYYPNSFSAPEHQPSALEHRTHFSGDVQRFNSANDDNVTQVRTFYLKVLNEEQRKRLCENIAGHLKDAQLFIQKKAVKNFSDVHPEYGSRIQALLDKYNEEKPKNAVHTYVQHGSHLSAREKANL", "values": [{"measurement": "stability, not immobilized", "setting": "[13]; pH 10, before immobilization", "value": "no stability"}, {"measurement": "time stable, immobilized enzyme", "setting": "[13]; pH 10, immobilized", "value": 5, "unit": "min"}]}, {"molecule": "Thermus brockianus catalase (SEQ ID NO:2, SEQ ID NO:5) (Thermus brockianus) (protein) DRLQIELPMPKEQDPNAAAAVQALLGGRFGEMSTLMNYMYQSFNFRGKKALKPYYDLIANIATEELGHIELVSATINSLLAKNPGKDLEEGVDPVSAPLGFSKDARNAAHFIAGGANTLVMGAMGEHWHGEYVFTSGNLILDLLHNFFLEVAARTHKLRVYEMTDNPVAREMIGYLLVRGGVHAAAYGKALETLTGVEMTKMLPIPRIDNSKIPEAKKYMDLGFHRNLYRFSPSDYQDLGLIWNGASPEDGSEVVVVDGPPTGGPVFDAGHDAAEFAPEFHPAELY", "values": [{"measurement": "Km", "setting": "[14]; other: 20 mM Tris pH 8, 70° C., hydrogen peroxide 3 to 450 mM, pH 8.0, 70.0 °C", "value": 35.5, "unit": "mM"}, {"measurement": "Km", "setting": "[14]; other: Immobilized Enzyme, packed column, PBS pH 7.2, 20 mL/min, optimum temperature, pH 7.2", "value": 17, "unit": "mM"}, {"measurement": "Km", "setting": "[14]; other: Non-Immobilized Enzyme, optimum temperature and pH", "value": 35, "unit": "mM"}]}]}
